Test system: auto-antibodies bound to the affinity chromatographic column
Test: Eluted auto-antibodies tested for preferential binding to peptide 1 or peptide 2 bound to a solid phase
Parameters: species or system human
Description: After elution from the affinity matrix, the auto-antibodies bound to the affinity chromatographic column were tested for preferential binding to peptide 1 or peptide 2 by means of peptide 1 and peptide 2 bound to a solid phase. Auto-antibody type 1 prefers the binding of peptide 1, and auto-antibody type 2 prefers the binding of peptide 2.

| preferential binding of auto-antibodies to peptide 1 or peptide 2 (auto-antibodies of person 2, peptides bound to a solid phase) | Sequence | preferential binding of auto-antibodies to peptide 1 or peptide 2 (auto-antibodies of person 1, peptides bound to a solid phase) |
| --- | --- | --- |
| preferably bind | HWWRAESDEARRSYNDPKC [Peptide 2] | – |
| – | TGSFFCELWTSGKK [Peptide 1] | preferably bind |

Reference: patent publication US6994970B1, “Peptides for combating the autoantibodies that are responsible for dilatative cardiomyopathy (DCM)” (Fresenius Medical Care Affina GmbH, priority 1999, dated 2006)
